Literature values as cited in patent US20240000809A1, “IMPROVED USE OF CANNABINOIDS IN THE TREATMENT OF EPILEPSY” (ORCOSA INC., priority 2020, published 2024).

Conditions: ingested orally, extensive first pass metabolism

Which bioavailability does the source give for `C=C(C)[C@@H]1CCC(C)=C[C@H]1c1c(O)cc(CCCCC)cc1O` [CBD, cannabidiol] here?
The bioavailability was 6 to 11%.
